The IC50 is the concentration needed to halve the response being measured.

Structures are written as SMILES.

This assay relates to HBsAg. The assay is described as follows: HBsAg assay (CLIA of secreted HBsAg in HepG2.2.15 culture supernatant). The class given is cell-based, HBV. Conditions: Hepatitis B virus, HepG2.2.15, read-out: IC50 (HBsAg assay). The procedure:
HepG2.2.15 cells (Acs et al. Proc Natl Acad Sci USA, 84, (1987), 4641-4), a constitutively HBV-expressing cell line were cultured in DMEM+Glutamax-I medium (Invitrogen, Carlsbad, Calif., USA), supplemented with 10% fetal bovine serum (Invitrogen) and G418 (Invitrogen) at a final concentration of 200 mg/L and maintained in 5% CO2 at 37° C.
HepG2.2.15 cells were seeded in duplicate into white, 96-well plates at 1.5×10^4 cells/well. The cells were treated with a three-fold serial dilution series of the compounds in DMSO. The final DMSO concentration in all wells was 1% and DMSO was used as no drug control.
The HBsAg chemiluminescence immunoassay (CLIA) kit (Autobio Diagnostics Co., Zhengzhou, China, Catalog number: CL0310-2) was used to measure the levels of secreted HBV antigens semi-quantitatively. For the detection 50 μL/well culture supernatant was used and HBsAg was quantified using HBsAg chemiluminescence immunoassay (CLIA) kit (Autobio Diagnostics Co., Zhengzhou, China, Catalog number: CL0310-2), 50 μL of the supernatant was transferred to the CLIA assay plate and 50 μL of enzyme conjugate reagent was added into each well. The plates were sealed and gently agitated for 1 hour at room temperature. The supernatant-enzyme-mixture was discarded and wells were washed 6 times with 300 μL of PBS. The residual liquid was removed by plating the CLIA plate right side down on absorbent tissue paper. 25 μL of substrates A and B were added to each well. Luminance was measured using a luminometer (Mithras LB 940 Multimode Microplate Reader) after 10 minutes incubation. Dose-response curves were generated and the IC50 value was extrapolated by using the E-WorkBook Suite (ID Business Solutions Ltd., Guildford, UK). The IC50 was defined as the compound concentration at which HBsAg secretion was reduced by 50% compared to the no drug control.
Turning to `COc1ccc(C(=O)N2CCc3nc(-c4ccccn4)ncc3C2C)cc1OC` (single isomer, unassigned; (-)) [Example 34, (−)-(3,4-Dimethoxyphenyl)-[5-methyl-2-(2-pyridyl)-7,8-dihydro-5H-pyrido[4,3-d]pyrimidin-6-yl]methanone], the IC50 was found to be 1.81 µM.
Consider `CCC1c2cnc(-c3ccccn3)nc2CCN1C(=O)c1ccc(OC)c(OC)c1` (single isomer, unassigned; (-)) [Example 35, (−)-(3,4-Dimethoxyphenyl)-[5-ethyl-2-(2-pyridyl)-7,8-dihydro-5H-pyrido[4,3-d]pyrimidin-6-yl]methanone], for which the half-maximal inhibitory concentration (IC50) stood at 2.72 µM.
Under `O=C(c1ccc(C(F)(F)F)cc1)N1CCc2nc(-c3ccccn3)ncc2C1` [Example 1, [2-(2-Pyridyl)-7,8-dihydro-5H-pyrido[4,3-d]pyrimidin-6-yl]-[4-(trifluoromethyl)phenyl]methanone] stands 15.7 µM; under `N#Cc1ccc(C(=O)N2CCc3nc(-c4ccccn4)ncc3C2)cc1` [Example 2, 4-[2-(2-Pyridyl)-7,8-dihydro-5H-pyrido[4,3-d]pyrimidine-6-carbonyl]benzonitrile], 17 µM; under `O=C(c1ccc([N+](=O)[O-])cc1)N1CCc2nc(-c3ccccn3)ncc2C1` [Example 3, (4-Nitrophenyl)-[2-(2-pyridyl)-7,8-dihydro-5H-pyrido[4,3-d]pyrimidin-6-yl]methanone], 27.3 µM.
Consider `O=C(c1ccccc1)N1CCc2nc(-c3ccccn3)ncc2C1` [Example 4, Phenyl-[2-(2-pyridyl)-7,8-dihydro-5H-pyrido[4,3-d]pyrimidin-6-yl]methanone], for which the IC50 was determined as 24.3 µM.
Under `O=C(c1ccc(Cl)cc1)N1CCc2nc(-c3ccccn3)ncc2C1` [Example 5, (4-Chlorophenyl)-[2-(2-pyridyl)-7,8-dihydro-5H-pyrido[4,3-d]pyrimidin-6-yl]methanone] stands 11.4 µM.
In the case of `O=C(c1cccc(C(F)(F)F)c1)N1CCc2nc(-c3ccccn3)ncc2C1` [Example 6, [2-(2-Pyridyl)-7,8-dihydro-5H-pyrido[4,3-d]pyrimidin-6-yl]-[3-(trifluoromethyl)phenyl]methanone], the IC50 came out at 18.7 µM.
Under `COc1ccc(C(=O)N2CCc3nc(-c4ccccn4)ncc3C2)cc1F` [Example 7, (3-Fluoro-4-methoxy-phenyl)-[2-(2-pyridyl)-7,8-dihydro-5H-pyrido[4,3-d]pyrimidin-6-yl]methanone] stands 4.86 µM; under `O=C(c1ccc(F)cc1)N1CCc2nc(-c3ccccn3)ncc2C1` [Example 8, (4-Fluorophenyl)-[2-(2-pyridyl)-7,8-dihydro-5H-pyrido[4,3-d]pyrimidin-6-yl]methanone], 16.4 µM.
The result for `COc1cc(C(=O)N2CCc3nc(-c4ccccn4)ncc3C2)ccc1F` [Example 9, (4-Fluoro-3-methoxy-phenyl)-[2-(2-pyridyl)-7,8-dihydro-5H-pyrido[4,3-d]pyrimidin-6-yl]methanone] reads 11.5 µM; that for `O=C(c1ccc(F)c(F)c1)N1CCc2nc(-c3ccccn3)ncc2C1` [Example 10, (3,4-Difluorophenyl)-[2-(2-pyridyl)-7,8-dihydro-5H-pyrido[4,3-d]pyrimidin-6-yl]methanone], 26.2 µM; that for `O=C(c1ccc(F)c(O)c1)N1CCc2nc(-c3ccccn3)ncc2C1` [Example 11, (4-Fluoro-3-hydroxy-phenyl)-[2-(2-pyridyl)-7,8-dihydro-5H-pyrido[4,3-d]pyrimidin-6-yl]methanone], 21 µM.
Under `O=C(c1ccc(O)c(F)c1)N1CCc2nc(-c3ccccn3)ncc2C1` [Example 12, (3-Fluoro-4-hydroxy-phenyl)-[2-(2-pyridyl)-7,8-dihydro-5H-pyrido[4,3-d]pyrimidin-6-yl]methanone] stands 21.4 µM.
With `CCOc1ccc(C(=O)N2CCc3nc(-c4ccccn4)ncc3C2)cc1F` [Example 13, (4-Ethoxy-3-fluoro-phenyl)-[2-(2-pyridyl)-7,8-dihydro-5H-pyrido[4,3-d]pyrimidin-6-yl]methanone], the IC50 stood at 6.56 µM.

The values above are taken from patent publication US10968217B2, “Tetrahydropyridopyrimidines for the treatment and prophylaxis of hepatitis B virus infection” (Hoffmann-La Roche Inc., priority 2016, dated 2021).
